Data on 32 compounds can be found in patent publication US9771370B2, “Compounds for the inhibition of indoleamine-2,3-dioxygenase” (Merck Patent GmbH, priority 2014, dated 2017).

Some results are limits rather than exact numbers.

As a reminder, the IC50 is the concentration at which inhibition is half-maximal.

Chain of Recombinant human IDO (P14902 whole entry): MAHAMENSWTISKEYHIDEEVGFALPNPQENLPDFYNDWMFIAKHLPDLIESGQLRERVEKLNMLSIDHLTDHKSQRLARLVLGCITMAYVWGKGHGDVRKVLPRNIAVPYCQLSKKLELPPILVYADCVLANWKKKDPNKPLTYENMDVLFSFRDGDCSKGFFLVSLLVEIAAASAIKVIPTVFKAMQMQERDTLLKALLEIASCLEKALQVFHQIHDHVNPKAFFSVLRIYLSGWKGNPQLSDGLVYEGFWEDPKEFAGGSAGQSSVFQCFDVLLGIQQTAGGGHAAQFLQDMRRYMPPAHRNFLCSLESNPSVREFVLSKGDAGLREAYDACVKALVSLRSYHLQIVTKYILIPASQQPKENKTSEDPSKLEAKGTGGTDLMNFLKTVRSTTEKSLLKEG

The test has as its target Recombinant human IDO (Homo sapiens, UniProt P14902). The test can be described thus: Bridge-IT tryptophan fluorescence assay of human IDO-1 inhibition. In kind it is biochemical. The conditions noted are these: recombinant human IDO 7.5 nM, L-tryptophan. The procedure: Measurement of human IDO-1 inhibition is performed in 384 well format using the Bridge-IT® tryptophan Fluorescence Assay (Mediomics, LLC, St. Louis, Mo., U.S.A.).
The reaction is initiated by the addition of L-Tryptophan (Sigma) at a final concentration of 100 μM in assay buffer. After 90 minutes of incubation at 37° C., the reaction is stopped by transferring 1 μl of the reaction mixture to 9 μl of Bridge-IT assay solution A. After 30 min of incubation at 30° C., the fluorescence intensity was measured at λex=485 nm and λem=665 nm using Perkin Elmer Envision® Multilabel Reader.
Measurement of human IDO-1 inhibition was performed in 384-well format using the BRIDGE-IT® tryptophan Fluorescence Assay (Mediomics, LLC, St. Louis, Mo., U.S.A.). […] After 30 minutes of pre-incubation at 25° C., the reaction was initiated by the addition of L-Tryptophan (Sigma) at a final concentration of 50 μM in assay buffer. After 60 minutes of incubation at 25° C., the reaction is stopped by transferring 1 μl of the reaction mixture to 9 μl of Bridge-IT assay solution A. After 30 min of incubation at 30° C., the fluorescence intensity was measured at λex=485 nm and λem=665 nm using Perkin Elmer ENVISION® Multilabel Reader.
Regarding `OC1CCC(C(O)CC2c3c(ccnc3F)-c3cncn32)CC1` (mixture of isomers) [Compound 4a, 4-(2-[9-fluoro-4,6,10-triazatricyclo[6.4.0.0^[2,6]]dodeca-1(8),2,4,9,11-pentaen-7-yl]-1-hydroxyethyl) cyclohexan-1-ol], the IC50 was over 1 µM.

On to `OC1CCC(F)(CCC2c3ncccc3-c3cncn32)CC1` (mixture of isomers) [Compound 7a, 4-fluoro-4-(2-{4,6,9-triazatricyclo[6.4.0.0^[2,6]]dodeca-1(8),2,4,9,11-pentaen-7-yl}ethyl)cyclohexan-1-ol], for which the IC50 was over 1 µM.

`OC1CCC(F)(CCC2c3ncccc3-c3cncn32)CC1` (mixture of isomers) [Compound 7b, 4-fluoro-4-(2-{4,6,9-triazatricyclo[6.4.0.0^[2,6]]dodeca-1(8),2,4,9,11-pentaen-7-yl}ethyl)cyclohexan-1-ol]: the IC50 was over 1 µM.

Take `OC(CC1c2ncncc2-c2cncn21)C1CCCCC1` (mixture of isomers) [Compound 67d, 1-cyclohexyl-2-[4,6,9,11-tetraazatricyclo[6.4.0.0^[2,6]]dodeca-1(8),2,4,9,11-pentaen-7-yl]ethan-1-ol]: the IC50 was over 1 µM.

In the case of `OC(CC1c2nc(OC3CC3)ccc2-c2cncn21)C1CCCCC1` (mixture of isomers) [Compound 68b, 1-cyclohexyl-2-[10-cyclopropoxy-4,6,9-triazatricyclo[6.4.0.0^[2,6]]dodeca-1(8),2,4,9,11-pentaen-7-yl]ethan-1-ol], the IC50 was over 1 µM.

Turning to `OC1CCC(C(F)(F)CC2c3ccccc3-c3cncn32)CC1` (mixture of isomers) [Compound 74a, 4-(1,1-difluoro-2-[5H-imidazo[4,3-a]isoindol-5-yl]ethyl)cyclohexan-1-ol], the IC50 is under 0.1 µM.

In the case of `OC1CCC(C(F)(F)CC2c3ccccc3-c3cncn32)CC1` (mixture of isomers) [Compound 74b, 4-(1,1-difluoro-2-[5H-imidazo[4,3-a]isoindol-5-yl]ethyl)cyclohexan-1-ol], the IC50 was in the range of 0.1 to 1 µM.

For `OC1CCC(C(F)(F)CC2c3c(F)cccc3-c3cncn32)CC1` (mixture of isomers) [Compound 75b, 4-(1,1-difluoro-2-[6-fluoro-5H-imidazo[4,3-a]isoindol-5-yl]ethyl)cyclohexan-1-ol], the half-inhibitory concentration (IC50) fell in the range of 0.1 to 1 µM.

Consider `OC1CCC(C(F)(F)CC2c3c(F)ccc(F)c3-c3cncn32)CC1` (mixture of isomers) [Compound 78a, 4-(2-[6,9-difluoro-5H-imidazo[4,3-a]isoindol-5-yl]-1,1-difluoroethyl)cyclohexan-1-ol], for which the IC50 was in the range of 0.1 to 1 µM.

Consider `OC1CCC(C(F)(F)CC2c3c(F)ccc(F)c3-c3cncn32)CC1` (mixture of isomers) [Compound 78b, 4-(2-[6,9-difluoro-5H-imidazo[4,3-a]isoindol-5-yl]-1,1-difluoroethyl)cyclohexan-1-ol], for which the IC50 is over 1 µM.

For `OC1(C2CCC(F)(CCC3c4c(F)cccc4-c4cncn43)CC2)CC1` (mixture of isomers) [Compound 85a, 1-[4-fluoro-4-(2-[6-fluoro-5H-imidazo[4,3-a]isoindol-5-yl]ethyl)cyclohexyl]cyclopropan-1-ol], the IC50 is under 0.1 µM.

As for `CC(C)(O)C1CCC(F)(CCC2c3c(F)cccc3-c3cncn32)CC1` (mixture of isomers) [Compound 86b, 2-[4-fluoro-4-(2-[6-fluoro-5H-imidazo[4,3-a]isoindol-5-yl]ethyl)cyclohexyl]propan-2-ol], the IC50 is under 0.1 µM.

As for `O=C(C1CCC(F)(CCC2c3ncccc3-c3cncn32)CC1)N1CCCCC1` (mixture of isomers) [Compound 100a, 7-[2-[1-Fluoro-4-[(piperidin-1-yl)carbonyl]cyclohexyl]ethyl]-4,6,9-triazatricyclo[6.4.0.0^[2,6]]dodeca-1(8),2,4,9,11-pentaene], the IC50 lay in the range of 0.1 to 1 µM.

In the case of `O=C(C1CCC(F)(CCC2c3ncccc3-c3cncn32)CC1)N1CCCCC1` (mixture of isomers) [Compound 100b, 7-[2-[1-Fluoro-4-[(piperidin-1-yl)carbonyl]cyclohexyl]ethyl]-4,6,9-triazatricyclo[6.4.0.0^[2,6]]dodeca-1(8),2,4,9,11-pentaene], the IC50 is over 1 µM.

As to `OC1CCC(F)(CCC2c3nccc(F)c3-c3cncn32)CC1` (mixture of isomers) [Compound 103a, 4-fluoro-4-(2-[12-fluoro-4,6,9-triazatricyclo[6.4.0.0^[2,6]]dodeca-1(8),2,4,9,11-pentaen-7-yl]ethyl)cyclohexan-1-ol], the IC50 is over 1 µM.

On to `NC1CCC(F)(CCC2c3ccccc3-c3cncn32)CC1` (mixture of isomers) [Compound 104a, 4-fluoro-4-(2-[5H-imidazo[4,3-a]isoindol-5-yl]ethyl)cyclohexan-1-amine], for which the IC50 is over 1 µM.

As to `NC1CCC(F)(CCC2c3ccccc3-c3cncn32)CC1` (mixture of isomers) [Compound 104b, 4-fluoro-4-(2-[5H-imidazo[4,3-a]isoindol-5-yl]ethyl)cyclohexan-1-amine], the IC50 fell in the range of 0.1 to 1 µM.

Regarding `OCC1CCC(F)(CCC2c3c(Cl)cccc3-c3cncn32)CC1` (mixture of isomers) [Compound 105b, [4-[2-[6-chloro-5H-imidazo[4,3-a]isoindol-5-yl]ethyl]-4-fluorocyclohexyl]methanol], the IC50 is over 1 µM.

Turning to `OC1(C2CCC(F)(CCC3c4c(Cl)cccc4-c4cncn43)CC2)CC1` (mixture of isomers) [Compound 106a, 1-[4-(2-[6-chloro-5H-imidazo[4,3-a]isoindol-5-yl]ethyl)-4-fluorocyclohexyl]cyclopropan-1-ol], the IC50 was under 0.1 µM.

As for `CC(C)(O)C1CCC(F)(CCC2c3c(Cl)cccc3-c3cncn32)CC1` (mixture of isomers) [Compound 107a, 2-[4-(2-[6-chloro-5H-imidazo[4,3-a]isoindol-5-yl]ethyl)-4-fluorocyclohexyl]propan-2-ol], the IC50 was over 1 µM.

`FC(CC1c2ccccc2-c2cncn21)C1CCCCC1` (mixture of isomers) [Compound 108a, 5-[2-cyclohexyl-2-fluoroethyl]-5H-imidazo[4,3-a]isoindole]: the IC50 was in the range of 0.1 to 1 µM.

As to `O=C(C1CCC(F)(CCC2c3c(F)cccc3-c3cncn32)CC1)N1CCCCC1` (mixture of isomers) [Compound 110b], the IC50 is 0.1 to 1 µM.

As to `CN(C)C(=O)C1CCC(F)(CCC2c3c(F)cccc3-c3cncn32)CC1` (mixture of isomers) [Compound 111a, 4-fluoro-4-(2-[6-fluoro-5H-imidazo[4,3-a]isoindol-5-yl]ethyl)-N,N-dimethylcyclohexane-1-carboxamide], the IC50 was under 0.1 µM.

`COc1ccc2c(n1)C(CC(N)C1CCCCC1)n1cncc1-2` (mixture of isomers) [Compound 118a, 1-cyclohexyl-2-[10-methoxy-4,6,9-triazatricyclo[6.4.0.0^[2,6]]dodeca-1(8),2,4,9,11-pentaen-7-yl]ethan-1-amine]: the IC50 was over 1 µM.

With `FC(F)(CC1c2ccccc2-c2cncn21)C1CCCCC1` (racemic) [Compound 64, 5-(2-cyclohexyl-2,2-difluoroethyl)-5H-imidazo[4,3-a]isoindole], the half-inhibitory concentration (IC50) lay in the range of 0.1 to 1 µM.

For `Fc1cccc2c1C(CC(F)(F)C1CCCCC1)n1cncc1-2` (racemic) [Compound 65, 5-(2-cyclohexyl-2,2-difluoroethyl)-6-fluoro-5H-imidazo[4,3-a]isoindole], the IC50 fell in the range of 0.1 to 1 µM.

Take `FC1(CCC2c3ccccc3-c3cncn32)CCCCC1` (single isomer, unassigned) [Compound 1a, 5-(2-(1-fluorocyclohexyl)ethyl)-5H-imidazo[5,1-a]isoindole]: the IC50 was over 1 µM.

Take `FC1(CCC2c3ccccc3-c3cncn32)CCCCC1` (single isomer, unassigned) [Compound 1b, 5-(2-(1-fluorocyclohexyl)ethyl)-5H-imidazo[5,1-a]isoindole]: the IC50 was in the range of 0.1 to 1 µM.

Consider `OC(CC1c2ncccc2-c2cncn21)C1CCCCC1` (single isomer, unassigned) [Compound 5a, 1-cyclohexyl-2-[4,6,9-triazatricyclo[6.4.0.0^[2,6]]dodeca-1(8),2,4,9,11-pentaen-7-yl]ethan-1-ol], for which the IC50 lay in the range of 0.1 to 1 µM.

For the compound `OC(CC1c2ncccc2-c2cncn21)C1CCCCC1` (single isomer, unassigned) [Compound 5b, 1-cyclohexyl-2-[4,6,9-triazatricyclo[6.4.0.0^[2,6]]dodeca-1(8),2,4,9,11-pentaen-7-yl]ethan-1-ol], the IC50 is over 1 µM.

`OC1CCC(F)(CCC2c3ncccc3-c3cncn32)CC1` (single isomer, unassigned) [Compound 8a, 4-fluoro-4-(2-{4,6,9-triazatricyclo[6.4.0.0^[2,6]]dodeca-1(8),2,4,9,11-pentaen-7-yl}ethyl)cyclohexan-1-ol]: the IC50 is 0.1 to 1 µM.

With `OC1CCC(F)(CCC2c3ncccc3-c3cncn32)CC1` (single isomer, unassigned) [Compound 8b, 4-fluoro-4-(2-{4,6,9-triazatricyclo[6.4.0.0^[2,6]]dodeca-1(8),2,4,9,11-pentaen-7-yl}ethyl)cyclohexan-1-ol], the IC50 was over 1 µM.
